Measurements as given in PubChem BioAssay (NCI).
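Where inhibition never reached the appropriate level, the endpoint shown equals the highest concentration tested. Otherwise, values were interpolated linearly from a five-concentration, 48-hour dose response in 96-well plates. Here, GI50 denotes the concentration required for 50% inhibition of growth. TGI denotes the concentration required for complete inhibition of growth.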

What was measured:
Assay in all cases: NCI tumour cell line growth inhibition, 48 h
SN12C renal = tested on: SN12C renal
UACC-62 melanoma = tested on: UACC-62 melanoma
DU-145 prostate = tested on: DU-145 prostate
OVCAR-4 ovarian = tested on: OVCAR-4 ovarian
SK-OV-3 ovarian = tested on: SK-OV-3 ovarian
ACHN renal = tested on: ACHN renal
MDA-MB-435 = tested on: MDA-MB-435
SW-620 colon = tested on: SW-620 colon
OVCAR-3 ovarian = tested on: OVCAR-3 ovarian
SK-MEL-2 melanoma = tested on: SK-MEL-2 melanoma
COLO 205 colon = tested on: COLO 205 colon
U251 CNS = tested on: U251 CNS
HT29 colon = tested on: HT29 colon

CCO/C(O)=C(/C(=N)N1CCOCC1)C(=O)Nc1ccc(F)cc1
TGI (SN12C renal): > 100 µM | TGI (UACC-62 melanoma): > 100 µM | TGI (DU-145 prostate): > 100 µM | TGI (OVCAR-4 ovarian): > 100 µM | TGI (SK-OV-3 ovarian): > 100 µM | TGI (ACHN renal): > 100 µM | TGI (MDA-MB-435): > 100 µM | TGI (SW-620 colon): > 100 µM | TGI (OVCAR-3 ovarian): > 100 µM | TGI (SK-MEL-2 melanoma): > 100 µM | TGI (COLO 205 colon): > 100 µM | TGI (U251 CNS): > 100 µM | TGI (HT29 colon): > 100 µM

O=C(O)C(O)C(O)C(O)C(O)c1nc2ccccc2s1 (stereo not given)
TGI (SN12C renal): 34.8 µM | TGI (UACC-62 melanoma): 28.8 µM | TGI (DU-145 prostate): 31.2 µM | TGI (OVCAR-4 ovarian): 50.2 µM | TGI (SK-OV-3 ovarian): 34.4 µM | TGI (ACHN renal): 33.2 µM | TGI (MDA-MB-435): 31.8 µM | TGI (SW-620 colon): 54.7 µM | TGI (OVCAR-3 ovarian): 31.4 µM | TGI (SK-MEL-2 melanoma): 36.5 µM | TGI (COLO 205 colon): > 100 µM | TGI (U251 CNS): 29.5 µM | TGI (HT29 colon): 41.9 µM

Cc1c(O)ccc2c(O)c(NC(=O)c3ccc4c(c3)CCC(C)(C)O4)c(=O)oc12
TGI (SN12C renal): > 100 µM | TGI (UACC-62 melanoma): > 100 µM | TGI (DU-145 prostate): > 100 µM | TGI (OVCAR-4 ovarian): > 100 µM | TGI (SK-OV-3 ovarian): > 100 µM | TGI (ACHN renal): > 100 µM | TGI (MDA-MB-435): > 100 µM | TGI (SW-620 colon): > 100 µM | TGI (OVCAR-3 ovarian): > 100 µM | TGI (SK-MEL-2 melanoma): > 100 µM | TGI (COLO 205 colon): > 100 µM | TGI (U251 CNS): > 100 µM | TGI (HT29 colon): > 100 µM

NS(=O)(=O)c1ccc(/C=C/c2ccc(O)c(O)c2)cc1
TGI (SN12C renal): 60.9 µM | GI50 (UACC-62 melanoma): 23.3 µM | TGI (UACC-62 melanoma): 42.2 µM | TGI (DU-145 prostate): > 100 µM | GI50 (OVCAR-4 ovarian): 11.6 µM | TGI (OVCAR-4 ovarian): 27.2 µM | TGI (SK-OV-3 ovarian): 48.8 µM | GI50 (ACHN renal): 20.4 µM | TGI (ACHN renal): > 100 µM | GI50 (MDA-MB-435): 16.8 µM | TGI (MDA-MB-435): 51.5 µM | TGI (SW-620 colon): > 100 µM | TGI (OVCAR-3 ovarian): > 100 µM | TGI (SK-MEL-2 melanoma): 62.8 µM | TGI (COLO 205 colon): 53.8 µM | GI50 (U251 CNS): 16.3 µM | TGI (U251 CNS): 46.9 µM | GI50 (HT29 colon): 35.4 µM | TGI (HT29 colon): > 100 µM

CC(C)(C)OC(=O)N(CCCCN(CCCNC(=O)C(F)(F)F)C(=O)OC(C)(C)C)CCCNC(=O)C(F)(F)F
TGI (SN12C renal): > 100 µM | TGI (UACC-62 melanoma): > 100 µM | TGI (DU-145 prostate): > 100 µM | TGI (OVCAR-4 ovarian): > 100 µM | TGI (SK-OV-3 ovarian): > 100 µM | TGI (ACHN renal): > 100 µM | TGI (MDA-MB-435): > 100 µM | TGI (SW-620 colon): > 100 µM | TGI (OVCAR-3 ovarian): > 100 µM | TGI (SK-MEL-2 melanoma): > 100 µM | TGI (COLO 205 colon): > 100 µM | TGI (U251 CNS): > 100 µM | TGI (HT29 colon): > 100 µM

C=CCn1c(N)c(C#N)c(C#N)c1-c1ccccc1
TGI (SN12C renal): > 100 µM | TGI (UACC-62 melanoma): > 100 µM | TGI (DU-145 prostate): > 100 µM | TGI (OVCAR-4 ovarian): > 100 µM | TGI (SK-OV-3 ovarian): > 100 µM | TGI (ACHN renal): > 100 µM | TGI (MDA-MB-435): > 100 µM | TGI (SW-620 colon): > 100 µM | TGI (OVCAR-3 ovarian): > 100 µM | TGI (SK-MEL-2 melanoma): > 100 µM | TGI (COLO 205 colon): > 100 µM | TGI (U251 CNS): > 100 µM | TGI (HT29 colon): > 100 µM

COc1cc(OC)c2nc(C)c(CCCl)c(Cl)c2c1
TGI (SN12C renal): > 100 µM | TGI (UACC-62 melanoma): > 100 µM | TGI (DU-145 prostate): > 100 µM | TGI (OVCAR-4 ovarian): > 100 µM | TGI (SK-OV-3 ovarian): > 100 µM | TGI (ACHN renal): > 100 µM | TGI (MDA-MB-435): > 100 µM | TGI (SW-620 colon): > 100 µM | TGI (OVCAR-3 ovarian): > 100 µM | TGI (SK-MEL-2 melanoma): > 100 µM | TGI (COLO 205 colon): > 100 µM | TGI (U251 CNS): > 100 µM | TGI (HT29 colon): > 100 µM

Cc1ccc(S(=O)(=O)c2[nH]cc(/C(=C\C3CCCCC3)[N+](=O)[O-])c2C2CCCCC2)cc1
TGI (SN12C renal): 0.49 µM | TGI (UACC-62 melanoma): 0.625 µM | TGI (DU-145 prostate): 1.49 µM | TGI (OVCAR-4 ovarian): 1.28 µM | TGI (SK-OV-3 ovarian): > 26.9 µM | TGI (ACHN renal): 0.619 µM | TGI (MDA-MB-435): > 100 µM | TGI (SW-620 colon): 3.67 µM | TGI (OVCAR-3 ovarian): 0.981 µM | TGI (SK-MEL-2 melanoma): 1.82 µM | TGI (COLO 205 colon): 0.602 µM | TGI (U251 CNS): 4.56 µM | TGI (HT29 colon): > 100 µM

O=C1c2ccccc2C(=O)c2c(NCC(O)CO)ccc(NCC(O)CO)c21 (stereo not given)
TGI (SN12C renal): > 100 µM | TGI (UACC-62 melanoma): > 100 µM | TGI (DU-145 prostate): > 100 µM | TGI (OVCAR-4 ovarian): > 100 µM | TGI (SK-OV-3 ovarian): > 100 µM | TGI (ACHN renal): > 100 µM | TGI (MDA-MB-435): > 100 µM | TGI (SW-620 colon): > 100 µM | TGI (OVCAR-3 ovarian): > 100 µM | TGI (SK-MEL-2 melanoma): 94.8 µM | TGI (COLO 205 colon): > 100 µM | TGI (U251 CNS): > 100 µM | TGI (HT29 colon): > 100 µM

O=c1[nH]cnc2c1cnn2Cc1cn(CCCCO)nn1
TGI (SN12C renal): > 100 µM | TGI (UACC-62 melanoma): > 100 µM | TGI (DU-145 prostate): > 100 µM | TGI (OVCAR-4 ovarian): > 100 µM | TGI (SK-OV-3 ovarian): > 100 µM | TGI (ACHN renal): > 100 µM | TGI (MDA-MB-435): > 100 µM | TGI (SW-620 colon): > 100 µM | TGI (OVCAR-3 ovarian): > 100 µM | TGI (SK-MEL-2 melanoma): > 100 µM | TGI (COLO 205 colon): > 100 µM | TGI (U251 CNS): > 100 µM | TGI (HT29 colon): > 100 µM

O=c1[nH]nnc2c1sc1ncccc12
TGI (SN12C renal): > 100 µM | TGI (UACC-62 melanoma): > 100 µM | TGI (DU-145 prostate): > 100 µM | TGI (OVCAR-4 ovarian): > 100 µM | TGI (SK-OV-3 ovarian): > 100 µM | TGI (ACHN renal): > 100 µM | TGI (MDA-MB-435): > 100 µM | TGI (SW-620 colon): > 100 µM | TGI (OVCAR-3 ovarian): > 100 µM | TGI (SK-MEL-2 melanoma): > 100 µM | TGI (COLO 205 colon): > 100 µM | TGI (U251 CNS): > 100 µM | TGI (HT29 colon): > 100 µM

O=C(/C=C/c1ccccc1)Oc1cccc(O)c1
TGI (SN12C renal): > 100 µM | TGI (UACC-62 melanoma): > 100 µM | TGI (DU-145 prostate): > 100 µM | TGI (OVCAR-4 ovarian): > 100 µM | TGI (SK-OV-3 ovarian): > 100 µM | TGI (ACHN renal): > 100 µM | TGI (MDA-MB-435): > 100 µM | TGI (SW-620 colon): 37.9 µM | TGI (OVCAR-3 ovarian): > 100 µM | TGI (SK-MEL-2 melanoma): > 100 µM | TGI (COLO 205 colon): > 100 µM | TGI (U251 CNS): > 100 µM | TGI (HT29 colon): > 100 µM

COc1cccc(CCNC(=O)Cc2ccccc2CCO)c1
TGI (SN12C renal): > 100 µM | TGI (UACC-62 melanoma): > 100 µM | TGI (DU-145 prostate): > 100 µM | TGI (OVCAR-4 ovarian): > 100 µM | TGI (SK-OV-3 ovarian): > 100 µM | TGI (ACHN renal): > 100 µM | TGI (MDA-MB-435): > 100 µM | TGI (SW-620 colon): > 100 µM | TGI (OVCAR-3 ovarian): > 100 µM | TGI (SK-MEL-2 melanoma): > 100 µM | TGI (COLO 205 colon): > 100 µM | TGI (U251 CNS): > 100 µM | TGI (HT29 colon): > 100 µM
